Read-outs that look alike come from different tables or passages of the source.
What was measured:
[1] = molecular target: M3 (Homo sapiens, UniProt P20309); assay: Receptor binding study, M3; conditions: mean values, n = 2, read-out: percent inhibition of control specific binding
[2] = molecular target: 5-HT transporter (Homo sapiens, UniProt P31645); assay: Receptor binding study, 5-HT transporter; conditions: read-out: percent inhibition of control specific binding
[3] = molecular target: 5-HT6 (h) (Homo sapiens, UniProt P50406); assay: Receptor binding study, 5-HT6; conditions: mean values, n = 2, read-out: percent inhibition of control specific binding
[4] = system: BZD (central); assay: Receptor binding study, BZD (central); conditions: 1 μM; mean values, n = 2
[5] = molecular target: M4 (Homo sapiens, UniProt P08173); assay: Receptor binding study, M4; conditions: mean values, n = 2, read-out: percent inhibition of control specific binding
Chain of M4 (P08173 whole entry): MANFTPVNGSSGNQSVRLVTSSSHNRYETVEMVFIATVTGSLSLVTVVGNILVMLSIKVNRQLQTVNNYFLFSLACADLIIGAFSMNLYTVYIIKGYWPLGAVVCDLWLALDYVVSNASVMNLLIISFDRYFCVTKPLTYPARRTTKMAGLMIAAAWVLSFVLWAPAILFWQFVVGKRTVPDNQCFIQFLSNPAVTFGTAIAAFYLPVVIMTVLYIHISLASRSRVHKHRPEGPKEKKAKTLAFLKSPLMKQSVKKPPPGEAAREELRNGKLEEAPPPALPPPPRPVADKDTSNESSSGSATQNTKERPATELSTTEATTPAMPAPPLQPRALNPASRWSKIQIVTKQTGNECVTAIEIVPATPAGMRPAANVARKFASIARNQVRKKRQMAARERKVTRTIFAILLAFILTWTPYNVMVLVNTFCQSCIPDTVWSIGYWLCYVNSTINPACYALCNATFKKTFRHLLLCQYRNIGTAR

[6] = molecular target: NE transporter (Homo sapiens, UniProt P23975); assay: Receptor binding study, NE transporter; conditions: mean values, n = 2, read-out: percent inhibition of control specific binding
[7] = system: GABAtransporter; assay: Receptor binding study, GABA transporter; conditions: 1 μM; mean values, n = 2
[8] = molecular target: 5-HT3 (h) (Homo sapiens, UniProt P46098); assay: Receptor binding study, 5-HT3; conditions: mean values, n = 2, read-out: percent inhibition of control specific binding
[9] = system: Kainate; assay: Receptor binding study, Kainate; conditions: 1 μM; mean values, n = 2
[10] = system: NMDA; assay: Receptor binding study, NMDA; conditions: 1 μM; mean values, n = 2
[11] = molecular target: T1, Cholinetransporter (Homo sapiens, UniProt Q9GZV3); assay: Receptor binding study, Choline transporter; conditions: 1 μM; mean values, n = 2; read-out: percent inhibition of control specific binding
T1 sequence (Q9GZV3 1-580): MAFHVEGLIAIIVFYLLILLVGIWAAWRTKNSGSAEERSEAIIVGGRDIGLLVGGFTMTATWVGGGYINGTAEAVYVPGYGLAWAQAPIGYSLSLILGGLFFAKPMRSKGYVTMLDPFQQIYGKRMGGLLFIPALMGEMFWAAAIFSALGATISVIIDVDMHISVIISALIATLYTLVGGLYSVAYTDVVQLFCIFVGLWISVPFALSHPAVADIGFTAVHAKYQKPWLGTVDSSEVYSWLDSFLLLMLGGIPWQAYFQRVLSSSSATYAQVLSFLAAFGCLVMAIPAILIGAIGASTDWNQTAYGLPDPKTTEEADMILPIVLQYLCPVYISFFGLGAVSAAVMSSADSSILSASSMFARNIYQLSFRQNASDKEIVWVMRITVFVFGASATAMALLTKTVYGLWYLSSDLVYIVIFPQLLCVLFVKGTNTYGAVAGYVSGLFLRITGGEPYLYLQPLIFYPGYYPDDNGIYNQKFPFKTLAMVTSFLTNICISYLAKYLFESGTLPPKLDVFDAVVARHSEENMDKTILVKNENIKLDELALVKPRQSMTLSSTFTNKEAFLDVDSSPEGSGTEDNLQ

[12] = molecular target: D1 (Homo sapiens, UniProt P21728); assay: Receptor binding study, D1; conditions: mean values, n = 2, read-out: percent inhibition of control specific binding
Chain of D1 (P21728 whole entry): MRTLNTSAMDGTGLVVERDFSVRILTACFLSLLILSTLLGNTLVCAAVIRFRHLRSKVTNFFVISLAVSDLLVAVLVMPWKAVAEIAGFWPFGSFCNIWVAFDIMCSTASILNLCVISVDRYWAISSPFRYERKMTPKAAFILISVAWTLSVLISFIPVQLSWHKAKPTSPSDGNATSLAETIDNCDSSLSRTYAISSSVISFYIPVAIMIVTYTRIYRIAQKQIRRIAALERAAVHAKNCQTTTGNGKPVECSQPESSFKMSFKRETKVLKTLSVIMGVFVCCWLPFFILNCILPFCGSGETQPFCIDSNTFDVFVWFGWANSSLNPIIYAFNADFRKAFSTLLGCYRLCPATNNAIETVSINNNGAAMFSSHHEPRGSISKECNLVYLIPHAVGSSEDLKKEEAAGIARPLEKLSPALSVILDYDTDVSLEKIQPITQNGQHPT

[13] = system: α1(non-selective); assay: Receptor binding study, α1; conditions: 1 μM; mean values, n = 2
[14] = system: α2(non-selective); assay: Receptor binding study, α2; conditions: 1 μM; mean values, n = 2
[15] = molecular target: H1 (central) (Cavia porcellus, UniProt P31389); assay: Receptor binding study, H1 (central); conditions: mean values, n = 2, read-out: percent inhibition of control specific binding
Chain of H1 (central) (P31389 whole entry): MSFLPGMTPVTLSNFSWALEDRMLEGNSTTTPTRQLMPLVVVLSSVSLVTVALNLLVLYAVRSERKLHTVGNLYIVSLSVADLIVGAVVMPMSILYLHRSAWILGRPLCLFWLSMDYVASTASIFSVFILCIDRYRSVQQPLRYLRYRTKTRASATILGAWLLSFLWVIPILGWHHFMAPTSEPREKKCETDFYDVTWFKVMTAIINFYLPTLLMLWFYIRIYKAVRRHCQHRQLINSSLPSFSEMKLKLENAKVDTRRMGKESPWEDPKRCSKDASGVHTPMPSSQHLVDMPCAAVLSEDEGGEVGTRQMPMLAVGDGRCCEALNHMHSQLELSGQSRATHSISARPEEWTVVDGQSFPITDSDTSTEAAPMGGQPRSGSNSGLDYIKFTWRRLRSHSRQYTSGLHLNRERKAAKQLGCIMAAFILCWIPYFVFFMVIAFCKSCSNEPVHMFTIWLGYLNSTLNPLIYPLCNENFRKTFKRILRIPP

[16] = molecular target: 5-HT1A (Homo sapiens, UniProt P08908); assay: Receptor binding study, 5-HT1A; conditions: mean values, n = 2, read-out: percent inhibition of control specific binding
Chain of 5-HT1A (P08908 whole entry, species assumed): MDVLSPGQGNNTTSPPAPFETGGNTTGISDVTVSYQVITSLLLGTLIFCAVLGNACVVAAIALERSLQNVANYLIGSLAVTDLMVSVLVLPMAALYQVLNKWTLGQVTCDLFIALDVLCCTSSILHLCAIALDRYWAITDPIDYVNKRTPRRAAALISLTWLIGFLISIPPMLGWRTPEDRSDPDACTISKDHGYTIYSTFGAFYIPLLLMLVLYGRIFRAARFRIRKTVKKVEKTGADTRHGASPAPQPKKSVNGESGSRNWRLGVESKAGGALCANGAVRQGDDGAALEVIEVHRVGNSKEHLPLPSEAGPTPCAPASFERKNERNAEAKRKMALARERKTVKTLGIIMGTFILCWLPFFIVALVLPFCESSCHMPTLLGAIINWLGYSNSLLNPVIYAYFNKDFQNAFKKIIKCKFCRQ

[17] = molecular target: β2 (Homo sapiens, UniProt P07550); assay: Receptor binding study, β2; conditions: mean values, n = 2, read-out: percent inhibition of control specific binding
Chain of β2 (P07550 whole entry): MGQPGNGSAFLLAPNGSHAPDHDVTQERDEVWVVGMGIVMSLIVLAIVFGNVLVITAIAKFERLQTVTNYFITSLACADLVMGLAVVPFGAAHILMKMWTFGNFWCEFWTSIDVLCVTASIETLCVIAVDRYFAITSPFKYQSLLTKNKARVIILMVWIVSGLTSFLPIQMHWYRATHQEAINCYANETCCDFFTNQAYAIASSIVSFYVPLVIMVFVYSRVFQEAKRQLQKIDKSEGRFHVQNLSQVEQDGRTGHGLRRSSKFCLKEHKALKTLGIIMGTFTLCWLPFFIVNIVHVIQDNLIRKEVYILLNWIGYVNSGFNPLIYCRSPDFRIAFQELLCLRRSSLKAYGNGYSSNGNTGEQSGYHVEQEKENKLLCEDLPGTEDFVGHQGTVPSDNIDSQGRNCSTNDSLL

[18] = molecular target: 5-HT5A (h) (Homo sapiens, UniProt P47898); assay: Receptor binding study, 5-HT5A; conditions: mean values, n = 2, read-out: percent inhibition of control specific binding
Chain of 5-HT5A (h) (P47898 whole entry): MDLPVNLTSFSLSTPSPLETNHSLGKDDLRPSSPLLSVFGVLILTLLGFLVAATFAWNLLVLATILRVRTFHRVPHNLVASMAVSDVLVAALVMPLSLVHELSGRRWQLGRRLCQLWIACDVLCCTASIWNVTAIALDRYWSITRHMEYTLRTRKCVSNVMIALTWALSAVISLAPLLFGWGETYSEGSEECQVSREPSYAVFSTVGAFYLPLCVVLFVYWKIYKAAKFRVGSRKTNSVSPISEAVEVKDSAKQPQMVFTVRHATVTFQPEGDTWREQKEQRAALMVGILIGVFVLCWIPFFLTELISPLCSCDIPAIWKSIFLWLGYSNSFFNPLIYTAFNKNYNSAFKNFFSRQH

[19] = molecular target: 5-HT4 (Homo sapiens, UniProt Q13639); assay: Receptor binding study, 5-HT4; conditions: mean values, n = 2, read-out: percent inhibition of control specific binding
Chain of 5-HT4 (Q13639 whole entry, species assumed): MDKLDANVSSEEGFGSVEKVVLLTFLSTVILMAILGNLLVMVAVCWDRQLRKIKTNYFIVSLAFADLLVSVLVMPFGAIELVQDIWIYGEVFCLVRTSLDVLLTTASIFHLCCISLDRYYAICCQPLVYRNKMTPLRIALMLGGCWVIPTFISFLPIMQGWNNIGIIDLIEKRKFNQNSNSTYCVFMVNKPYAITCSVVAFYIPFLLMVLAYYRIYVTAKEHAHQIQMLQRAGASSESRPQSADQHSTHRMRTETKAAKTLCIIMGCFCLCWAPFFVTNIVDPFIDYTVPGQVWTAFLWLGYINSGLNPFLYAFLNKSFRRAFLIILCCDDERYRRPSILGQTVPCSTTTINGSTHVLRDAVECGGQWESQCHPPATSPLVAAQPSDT

[20] = system: GABAa; assay: Receptor binding study, GABAa; conditions: 1 μM; mean values, n = 2
[21] = molecular target: β1 (Homo sapiens, UniProt P08588); assay: Receptor binding study, β1; conditions: mean values, n = 2, read-out: percent inhibition of control specific binding
Chain of β1 (P08588 whole entry): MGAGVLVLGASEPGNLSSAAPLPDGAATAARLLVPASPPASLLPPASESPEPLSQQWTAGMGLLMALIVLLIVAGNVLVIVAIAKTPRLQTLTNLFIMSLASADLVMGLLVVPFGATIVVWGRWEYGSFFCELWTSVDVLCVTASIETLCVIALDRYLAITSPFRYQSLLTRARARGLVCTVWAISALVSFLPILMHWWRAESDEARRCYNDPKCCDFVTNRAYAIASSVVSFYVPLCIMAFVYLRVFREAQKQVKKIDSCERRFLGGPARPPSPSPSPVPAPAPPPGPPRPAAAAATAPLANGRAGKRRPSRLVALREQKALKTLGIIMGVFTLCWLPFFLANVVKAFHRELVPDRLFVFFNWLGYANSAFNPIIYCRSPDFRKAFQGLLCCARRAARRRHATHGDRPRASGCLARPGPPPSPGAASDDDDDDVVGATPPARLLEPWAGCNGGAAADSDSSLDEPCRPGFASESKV

[22] = system: P2Y; assay: Receptor binding study, P2Y; conditions: 1 μM; mean values, n = 2
[23] = molecular target: T2, M5 (Homo sapiens, UniProt P08912); assay: Receptor binding study, M5; conditions: 1 μM; mean values, n = 2; read-out: percent inhibition of control specific binding
T2 sequence (P08912 1-532): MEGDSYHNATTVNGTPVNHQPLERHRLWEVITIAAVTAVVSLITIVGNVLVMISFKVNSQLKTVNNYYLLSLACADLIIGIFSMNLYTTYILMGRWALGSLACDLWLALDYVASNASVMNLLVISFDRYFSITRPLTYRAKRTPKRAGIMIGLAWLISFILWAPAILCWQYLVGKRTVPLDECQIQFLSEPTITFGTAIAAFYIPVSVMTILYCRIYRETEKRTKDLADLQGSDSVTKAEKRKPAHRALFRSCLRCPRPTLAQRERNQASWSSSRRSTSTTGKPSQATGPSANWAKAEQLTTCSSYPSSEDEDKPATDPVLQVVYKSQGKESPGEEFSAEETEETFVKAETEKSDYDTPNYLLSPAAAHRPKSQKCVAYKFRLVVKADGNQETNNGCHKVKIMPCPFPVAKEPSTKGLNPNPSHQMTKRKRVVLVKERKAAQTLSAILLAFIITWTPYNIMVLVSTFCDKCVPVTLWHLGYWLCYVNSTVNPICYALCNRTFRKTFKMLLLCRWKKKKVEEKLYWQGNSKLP

[24] = system: P2X; assay: Receptor binding study, P2X; conditions: 1 μM; mean values, n = 2
[25] = molecular target: D5 (h) (Homo sapiens, UniProt P21918); assay: Receptor binding study, D5; conditions: mean values, n = 2, read-out: percent inhibition of control specific binding
Chain of D5 (h) (P21918 whole entry): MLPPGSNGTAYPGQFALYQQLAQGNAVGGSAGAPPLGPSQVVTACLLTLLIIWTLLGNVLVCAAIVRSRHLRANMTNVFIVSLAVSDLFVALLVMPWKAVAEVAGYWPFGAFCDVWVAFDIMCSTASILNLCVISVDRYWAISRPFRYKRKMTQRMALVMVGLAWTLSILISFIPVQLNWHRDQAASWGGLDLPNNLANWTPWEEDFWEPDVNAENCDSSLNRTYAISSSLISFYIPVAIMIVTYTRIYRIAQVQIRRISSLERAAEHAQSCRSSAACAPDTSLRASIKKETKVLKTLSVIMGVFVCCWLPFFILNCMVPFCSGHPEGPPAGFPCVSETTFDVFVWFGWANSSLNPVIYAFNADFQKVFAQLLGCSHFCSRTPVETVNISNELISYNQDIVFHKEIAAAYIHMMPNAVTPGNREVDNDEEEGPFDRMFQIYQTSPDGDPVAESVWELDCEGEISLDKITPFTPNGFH

[26] = system: ADOtransporter; assay: Receptor binding study, ADO transporter; conditions: 1 μM; mean values, n = 2

Chain of M3 (P20309 whole entry): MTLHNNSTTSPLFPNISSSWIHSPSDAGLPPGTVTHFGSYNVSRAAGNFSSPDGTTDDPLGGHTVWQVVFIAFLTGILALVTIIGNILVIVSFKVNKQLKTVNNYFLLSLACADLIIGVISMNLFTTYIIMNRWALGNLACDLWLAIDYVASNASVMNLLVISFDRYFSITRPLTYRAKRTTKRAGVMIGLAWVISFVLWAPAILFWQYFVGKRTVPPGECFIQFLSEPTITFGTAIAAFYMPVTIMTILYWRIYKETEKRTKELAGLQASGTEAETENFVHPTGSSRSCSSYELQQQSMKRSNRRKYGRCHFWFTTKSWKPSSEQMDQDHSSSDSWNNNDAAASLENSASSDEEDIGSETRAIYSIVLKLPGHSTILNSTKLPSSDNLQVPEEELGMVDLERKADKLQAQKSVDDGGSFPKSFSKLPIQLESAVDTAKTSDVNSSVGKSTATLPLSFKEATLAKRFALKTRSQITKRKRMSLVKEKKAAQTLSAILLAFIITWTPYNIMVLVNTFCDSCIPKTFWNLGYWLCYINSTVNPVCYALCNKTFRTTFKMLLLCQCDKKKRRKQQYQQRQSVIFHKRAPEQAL

Compound	inhibition at 1 µM [1] [%]	inhibition at 1 µM [3] [%]	percent inhibition of control specific binding [4]	inhibition at 1 µM [5] [%]	inhibition at 1 µM [6] [%]	percent inhibition of control specific binding [7]	inhibition at 1 µM [8] [%]	percent inhibition of control specific binding [9]	percent inhibition of control specific binding [10]	inhibition at 1 µM [11] [%]	inhibition at 1 µM [12] [%]	percent inhibition of control specific binding [13]	percent inhibition of control specific binding [14]	inhibition at 1 µM [15] [%]	inhibition at 1 µM [16] [%]	inhibition at 1 µM [17] [%]	inhibition at 1 µM [18] [%]	inhibition at 1 µM [19] [%]	percent inhibition of control specific binding [20]	inhibition at 1 µM [21] [%]	also measured
CCCCc1nc(N)c2nc(-n3nccn3)n(C)c2n1 [ST 1535, 2-butyl-9-methyl-8-(2H-1,2,3-triazol-2-yl)-9H-purine-6-ylamine]	< 10	< 10	— (The symbol — indicates an inhibition of less than 10%.)	< 10	< 10	— (The symbol — indicates an inhibition of less than 10%.)	< 10	— (The symbol — indicates an inhibition of less than 10%.)	— (The symbol — indicates an inhibition of less than 10%.)	< 10	< 10	— (The symbol — indicates an inhibition of less than 10%.)	— (The symbol — indicates an inhibition of less than 10%.)	< 10	< 10	< 10	< 10	< 10	— (The symbol — indicates an inhibition of less than 10%.)	< 10	inhibition at 1 µM ([2]; 1 μM, mean values, n = 2, class symbol): < 10%; percent inhibition of control specific binding [22]: — (The symbol — indicates an inhibition of less than 10%.); inhibition at 1 µM [23]: < 10%; percent inhibition of control specific binding [24]: — (The symbol — indicates an inhibition of less than 10%.); inhibition at 1 µM [25]: < 10%; percent inhibition of control specific binding [26]: 24%
CCCCCc1nc(N)c2nc(-n3nccn3)n(C)c2n1 [ST 2097, 9-methyl-2-pentyl-8-(2H-1,2,3-triazol-2-yl)-9H-purine-6-ylamine]	< 10	< 10	— (The symbol — indicates an inhibition of less than 10%.)	< 10	< 10	— (The symbol — indicates an inhibition of less than 10%.)	< 10	— (The symbol — indicates an inhibition of less than 10%.)	— (The symbol — indicates an inhibition of less than 10%.)	< 10	< 10	— (The symbol — indicates an inhibition of less than 10%.)	— (The symbol — indicates an inhibition of less than 10%.)	< 10	< 10	< 10	< 10	< 10	— (The symbol — indicates an inhibition of less than 10%.)	< 10	inhibition at 1 µM [2]: 13%; percent inhibition of control specific binding [22]: — (The symbol — indicates an inhibition of less than 10%.); inhibition at 1 µM [23]: < 10%; percent inhibition of control specific binding [24]: — (The symbol — indicates an inhibition of less than 10%.); inhibition at 1 µM [25]: < 10%; percent inhibition of control specific binding [26]: 34%

Reference: US7528252B2, “Derivatives of triazoly-imidazopyridine useful as ligands of the adenosine A2a receptor and their use as medicaments” (Sigma-Tau Industrie Farmaceutiche Riunite S.p.A., priority 2002, dated 2009)
